From patent US20070225242A1, “Method and composition for treating and preventing tumor metastasis in vivo” (The Board of Trustees of the Leland Stanford Junior …, priority 2005, published 2007)

B1: catalase: catalase (Sigma), removes hydrogen peroxide, a by-product of LOX activity (protein, UniProt P00432 2-527, looked up)
Catalase: ADNRDPASDQMKHWKEQRAAQKPDVLTTGGGNPVGDKLNSLTVGPRGPLLVQDVVFTDEMAHFDRERIPERVVHAKGAGAFGYFEVTHDITRYSKAKVFEHIGKRTPIAVRFSTVAGESGSADTVRDPRGFAVKFYTEDGNWDLVGNNTPIFFIRDALLFPSFIHSQKRNPQTHLKDPDMVWDFWSLRPESLHQVSFLFSDRGIPDGHRHMNGYGSHTFKLVNANGEAVYCKFHYKTDQGIKNLSVEDAARLAHEDPDYGLRDLFNAIATGNYPSWTLYIQVMTFSEAEIFPFNPFDLTKVWPHGDYPLIPVGKLVLNRNPVNYFAEVEQLAFDPSNMPPGIEPSPDKMLQGRLFAYPDTHRHRLGPNYLQIPVNCPYRARVANYQRDGPMCMMDNQGGAPNYYPNSFSAPEHQPSALEHRTHFSGDVQRFNSANDDNVTQVRTFYLKVLNEEQRKRLCENIAGHLKDAQLFIQKKAVKNFSDVHPEYGSRIQALLDKYNEEKPKNAVHTYVQHGSHLSAREKANL

Assays:
Type in all cases: cell-based
MDA231 and SiHa cells = experiment: In vitro invasion assay (Matrigel-coated inserts); conditions: various human cancer cells; 24 hr oxygen deprived
Experimental: The first step of the metastatic process is cell invasion. […] The invasion of various human cancer cells in vitro was examined. […] Because LOX is a copper-dependent enzyme that can act intracellularly or extracellularly, cells were treated with bathocuprione disulphonate (BCS), a copper chelator that cannot permeate the cell membrane.
Invasive behavior was examined in vitro as previously described. Briefly, cells were serum deprived for 24 h then 2.5×10^4 cells were seeded in triplicate on both Matrigel-coated and uncoated inserts, moved to chambers containing 750 μl of FBS as a chemo-attractant and incubated at in normoxic or oxygen deprived conditions for 24 hr. Treatments with beta-aminoproprionitrile or bathocuprione disulphonate (Sigma) were performed 24 h prior to serum deprivation, and continued throughout the experiment.

human cancer cells = experiment: Cell viability; conditions: data not shown
FAK = FAK phosphorylation (phospho-FAK immunoblot); conditions: cells expressing LOX shRNA transfected with mature LOX
Description: Acquisition of motility is required before cells can migrate and invade. Invasive cell migration is a multi-step process^17 that commences with pseudopod protrusion at the leading edge driven by actin polymerization, resulting in focal adhesion formation and the activation of integrin and focal adhesion kinase (FAK). […] LOX protein expression extended along hairlike fibers protruding from the cell surface into the collagen matrix. […] Remodeling of the actin cytoskeleton with increased formation of stress fibers and focal adhesion in MDA231 control cells particularly in hypoxia was observed, which were not seen in cells expressing LOX shRNA.
A role for fibronectin (FN) was sought, because it was strongly associated with LOX expression in the breast cancer microarray data set that was analyzed (data not shown), is reported to regulate invasion, bind to integrins and interact with LOX, and is hypoxia induced. […] FAK phosphorylation could be induced in the cells expressing LOX shRNA by transfection with mature LOX (but not catalytically dead LOX), confirming a role for LOX in FAK phosphorylation. […]
Methods were performed as previously described. […] LOX was analyzed by using a rabbit polyclonal antibody raised against a synthetic peptide of human LOX (EDTSCDYGYHRRFA (SEQ ID NO:1); Open Biosystems). […] Quantification was performed with ImageQuant software.

Molecule	increased invasion under hypoxia or anoxia (MDA231 and SiHa cells)	cell viability (human cancer cells)	FAK phosphorylation induced by transfection with mature LOX (FAK)
Cc1cc(-c2ccc(S(=O)(=O)O)cc2)c2ccc3c(-c4ccc(S(=O)(=O)O)cc4)cc(C)nc3c2n1 [BCS, bathocuprione disulphonate]	prevented the enhanced invasion of hypoxic cells	Neither treatment with BAPN nor treatment with BCS affected cell viability	–
B1	–	–	could be prevented
